Patent US20120015344A1, “Methods, compositions, and apparatus for the detection of viral strains” (priority 2010, published 2012)
Several values for one entry are separate records, joined by “and”; a condition that tells them apart may be missing. Equal entries are not always repeated. Entries after “also recorded” stand apart in the source; their conditions may differ. Where two headings read alike, the source gives them in different places. Marks after values point to notes of the source that are not given here.

Legend:
[1] = test system: H5 Hemagglutinin (HA) Protein from Influenza Virus, A/Vietnam/1203/04 (H5N1); assay type: binding, Influenza A virus H5N1 (A/Vietnam/1203/04)
H5N1 = conditions: cited from earlier work
[2] = test system: H5 Hemagglutinin (HA) Protein from Influenza Virus, A/Vietnam/1203/04 (H5N1); assay type: binding, Influenza A virus H5N1 (A/Vietnam/1203/04); remark: listed apart in the source
[3] = target: T1, H1 hemagglutinin (HA) protein, A/South Carolina/1/18 (H1N1) (Influenza A virus, UniProt Q9WFX3); assay type: binding, Influenza A virus H1N1 (A/South Carolina/1/18)
[4] = target: T1, H1 hemagglutinin (HA) protein, A/South Carolina/1/18 (H1N1); assay type: binding, Influenza A virus H1N1 (A/South Carolina/1/18); remark: listed apart in the source

T1 sequence (Q9WFX3 18-566 limits assumed): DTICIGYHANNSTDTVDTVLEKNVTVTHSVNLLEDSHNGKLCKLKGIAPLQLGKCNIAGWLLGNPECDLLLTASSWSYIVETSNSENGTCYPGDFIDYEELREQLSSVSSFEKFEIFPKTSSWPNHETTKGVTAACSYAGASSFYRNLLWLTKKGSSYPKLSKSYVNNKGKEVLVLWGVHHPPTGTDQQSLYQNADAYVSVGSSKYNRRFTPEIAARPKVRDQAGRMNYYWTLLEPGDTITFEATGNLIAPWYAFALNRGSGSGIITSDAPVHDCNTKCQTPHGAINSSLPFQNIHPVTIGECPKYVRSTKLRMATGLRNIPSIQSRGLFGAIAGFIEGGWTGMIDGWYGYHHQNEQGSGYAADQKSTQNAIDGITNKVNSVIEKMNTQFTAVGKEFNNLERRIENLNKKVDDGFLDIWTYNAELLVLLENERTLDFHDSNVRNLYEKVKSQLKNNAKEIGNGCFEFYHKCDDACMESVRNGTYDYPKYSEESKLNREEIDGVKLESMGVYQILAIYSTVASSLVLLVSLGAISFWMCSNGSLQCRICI

Substance: Neu5Acα2-3Galβ1-4GlcNAcβ-SpNH-LC-LC-Biotin [3′SLN]
- binding between H5 and glycan (avidity, from ΔQ) [1]: statistically higher avidity; also recorded: high avidity of binding
- Predicted to Bind H5N1 (H5N1): Yes

Substance: Neu5Acα2-3Galβ1-4[Fucα1-3]GlcNAcβ-SpNH-LC-LC-Biotin [3′SLe^x]
- binding between H5 and glycan (avidity, from ΔQ) [2]: high avidity of binding
- Mean ΔQ ± S.D. (n = 3) [3]: 0.08906 ± 0.0045^b mC and 0.1186 ± 0.0180^b mC
- Predicted to Bind H5N1 (H5N1): Yes
- Mean ΔQ ± S.D. (n = 3) [4]: 0.2259 ± 0.0115^f mC and 0.2974 ± 0.0001^f mC

Substance: Neu5Acα2-3[GalNAcβ1-4]Galβ1-4GlcNAcβ-SpNH-LC-LC-Biotin [CT/Sda]
- Predicted to Bind H5N1 (H5N1): No

Substance: Neu5Acα2-3[Galβ1-4GlcNAcβ1-3]2β-SpNH-LC-LC-Biotin [3′S-Di-LN]
- Predicted to Bind H5N1 (H5N1): Yes

Substance: Neu5Acα2-6Galβ1-4GlcNAcβ-SpNH-LC-LC-Biotin [6′SLN]
- Mean ΔQ ± S.D. (n = 3) [1]: 0.1388 ± 0.0056^h mC
- binding between H5 and glycan (avidity, from ΔQ) [1]: statistically lower binding
- Predicted to Bind H5N1 (H5N1): No

Substance: Neu5Acα2-6[Galβ1-4GlcNAcβ1-3]2β-SpNH-LC-LC-Biotin [6′S-Di-LN]
- Predicted to Bind H5N1 (H5N1): No

Substance: Neu5Acα2-8Neu5Acα2-8Neu5Acα2-3Galβ1-4Glcβ-SpNH-LC-LC-Biotin [GT3]
- Mean ΔQ ± S.D. (n = 3) [2]: 0.2881 ± 0.0172^f mC
- binding between H5 and glycan (avidity, from ΔQ) [2]: statistically lower binding
- Predicted to Bind H5N1 (H5N1): No
